Experimental data from patent US20230128198A1, “NOVEL HETEROCYCLIC COMPOUNDS USEFUL AS AURORA A SELECTIVE INHIBITORS” (JACOBIO PHARMACEUTICALS CO., LTD., priority 2020, published 2023).

Tests used:
[1] = system: NCI-H446 and NCI-H69 human small cell lung cancer xenograft model; assay: In vivo anti-tumor efficacy, xenograft model; design: species or system BALB/c nude mice; details: 15 mg/kg po., BID × 10 days, QD × 19 days, treatment 29 days
Procedure: This study is to examine the anti-tumor efficacy of test compounds in NCI-H446 and NCI-H69 human small cell lung cancer xenograft model in BALB/c nude mice. Each mouse was inoculated subcutaneously at the right flank region with NCI-H446 (3×10^6) and NCI-H69 cells (5×10^6) in 0.1 mL of PBS and Matrigel (1:1) for tumor development. The mouse were randomized according to tumor size and weight, the treatment began when the mean tumor size reached 100-200 mm^3. Anti-tumor activity was assessed according to relative tumor inhibition rate (TGI).
Tumor volumes were measured in two dimensions using a caliper, and the volume was expressed in mm^3 using the formula: V=0.5a×b^2 where a and bare the long and short diameters of the tumor, respectively. Statistical analysis of difference in tumor volume among the groups were performed using one-way ANOVA. All data was analyzed using SPSS 22.0 software. p<0.05 was considered to be statistically significant.

[2] = biological target: T1, Aurora A (Homo sapiens, UniProt O14965); assay: Aurora A kinase assay (mobility shift assay); type: biochemical
T1 sequence (O14965 1-403): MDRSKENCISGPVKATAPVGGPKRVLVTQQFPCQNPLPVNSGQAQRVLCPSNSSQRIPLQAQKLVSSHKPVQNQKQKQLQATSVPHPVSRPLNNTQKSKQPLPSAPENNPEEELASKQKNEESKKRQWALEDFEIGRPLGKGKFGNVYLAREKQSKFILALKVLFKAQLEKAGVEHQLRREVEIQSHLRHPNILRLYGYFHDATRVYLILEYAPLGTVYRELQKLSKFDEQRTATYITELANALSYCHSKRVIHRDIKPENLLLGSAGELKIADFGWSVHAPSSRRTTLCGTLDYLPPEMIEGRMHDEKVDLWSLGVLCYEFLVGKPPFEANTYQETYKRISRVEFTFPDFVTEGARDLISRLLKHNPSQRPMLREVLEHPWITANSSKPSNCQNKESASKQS
Procedure: (§1) Example A: Evaluation of Aurora a and Aurora B Inhibitory Effect—Kinase Assay
(§2) The inhibitory activities of a test compound against Aurora A and Aurora B were measured according to the following method.
(§3) The IC50 value of Aurora A and Aurora B kinase was performed by Sundia MediTech Co. Ltd. using Mobility shift assay.
(§4) • (1) Prepare a 1× kinase buffer [50 mM 4-(2-hydroxyethyl)-1-piperazineethanesulfonic acid (HEPES), PH 7.5, 0.01% Brij-35, 10 mM MgCl2, 2 mM dithiothreitol (DTT)]. • (2) Prepare compound:
The testing compound was dissolved with DMSO. The testing compound was diluted up to 100× final concentration in a 384-well plate. Transfer 250 nL of the compound dilution to a 384-well assay plate using Echo 550. […] Add 10 μL of the 1× kinase buffer to the negative control well. • (5) The 384-well plate was centrifuged at 1000 rpm for 30 seconds and incubated at room temperature for 10 min. • (6) A mixture of ATP and Kinase substrate 21 with a final concentration of 25/15× was prepared by the 1× kinase buffer. • (7) Add 15 µL of the mixture of 25/15×ATP and kinase substrate solution 21 to start reaction. • (8) The 384-well plate was centrifuged at 1000 rpm for 30 seconds and incubated at room temperature. • (9) 30 µL of the stop and detection buffer was added to stop the kinase reaction and centrifuged at 1000 rpm for 30 seconds. • (10) Collect data on Caliper EZ ReaderII. […]

[3] = biological target: Aurora B (Homo sapiens, UniProt Q96GD4); assay: Aurora B kinase assay (mobility shift assay); type: biochemical; details: ratio of Aurora B IC50 to Aurora A IC50
Sequence of Aurora B (Q96GD4 whole entry): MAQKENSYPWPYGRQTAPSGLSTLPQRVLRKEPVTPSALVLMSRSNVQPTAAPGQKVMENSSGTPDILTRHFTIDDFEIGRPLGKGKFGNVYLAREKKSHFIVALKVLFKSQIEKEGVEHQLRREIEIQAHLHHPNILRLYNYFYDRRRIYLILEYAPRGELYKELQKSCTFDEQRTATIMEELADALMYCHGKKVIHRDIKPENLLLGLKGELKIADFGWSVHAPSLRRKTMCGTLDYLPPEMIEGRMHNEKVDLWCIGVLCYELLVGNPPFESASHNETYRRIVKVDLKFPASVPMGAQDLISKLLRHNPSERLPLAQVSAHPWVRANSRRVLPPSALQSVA
Procedure: as §1, §2, §3, §4
The testing compound was dissolved with DMSO. The testing compound was diluted up to 100× final concentration in a 384-well plate. Transfer 250 nL of the compound dilution to a 384-well assay plate using Echo 550. 100% DMSO of 250 nL was added to the negative control well and the positive control well. • (3) Prepare a 2.5× enzyme solution using the above 1× kinase buffer. • (4) Add 10 μL of the 2.5× enzyme solution to the compound well and the positive control well of the 384-well assay plate.
Conversion %_sample is conversion rate data of samples. Conversion %_min is mean value of negative control (conversion rate data without enzyme activation). Conversion %_max is mean positive control (conversion rate data without compound).
The log of concentration is on the X axis, and the percentage inhibition is on the Y axis.

[4] = PK in rat; type: in vivo, SD male rats
Procedure: The compounds were dissolved into 10% DMSO, 30% PEG400, and 60% saline to obtain a solution. SD male rats were given the compound orally and intravenously. Then plasma samples were collected at 0 hour (pre-dose), 0.25, 0.5, 1, 2, 4, 7, 24 hours post-dose. Plasma drug concentration was detected by LC-MS/MS. Pharmacokinetic parameters were calculated using WinNonlin's software with non-compartmental model.

| Structure (SMILES) | TGI TV(%) [1] [%] | TV (mean ± sem) [1] [mm^3] | further results |
| --- | --- | --- | --- |
| Cc1cc(Nc2nc(C[C@@]3(C(=O)O)CCN(Cc4cccc(Cl)c4F)[C@H](C)C3)ccc2F)[nH]n1 [Example 5, (2R,4R)-1-(3-chloro-2-fluorobenzyl)-4-((5-fluoro-6-((3-methyl-1H-pyrazol-5-yl)amino)pyridin-2-yl)methyl)-2-methylpiperidine-4-carboxylic acid] | 98 | 27 ± 5 |  |
| Cc1cc(Nc2cc(C)c(F)c(C[C@@]3(C(=O)O)CCN(Cc4cccc(Cl)c4F)[C@H](C)C3)n2)n[nH]1 [Example 49, (2R,4R)-1-(3-chloro-2-fluorobenzyl)-4-((3-fluoro-4-methyl-6-((5-methyl-1H-pyraz-ol-3-yl)amino)pyridin-2-yl)methyl)-2-methylpiperidine-4-carboxylic acid] | 90 | 160 ± 26 |  |
| CC(=O)c1cc(Nc2cc(C)[nH]n2)nc(CC2(C(=O)O)CCN(Cc3cccc(Cl)c3F)CC2)c1F [Example 69, 4-((4-acetyl-3-fluoro-6-((5-methyl-1H-pyrazol-3-yl)amino)pyridin-2-yl)methyl)-1-(3-chloro-2-fluorobenzyl) piperidine-4-carboxylic acid] |  |  | IC50 [2]: 0.91 nM; IC50 Ratio Aur B/Aur A [3]: 1444 |
| Cc1cc(Nc2cc(Cl)c(F)c(C[C@@]3(C(=O)O)CCN(Cc4cccc(Cl)c4F)[C@H](C)C3)n2)n[nH]1 [Example 72, (2R,4R)-1-(3-chloro-2-fluorobenzyl)-4-((4-chloro-3-fluoro-6-((5-methyl-1H-pyrazol-3-yl)amino)pyridin-2-yl)methyl)-2-methylpiperidine-4-carboxylic acid] | 89 | 176 ± 25 |  |
| Cc1cc(Nc2nc(C[C@@]3(C(=O)O)CCN(Cc4cccc(Cl)c4F)[C@H](C)C3)cc(C)c2F)n[nH]1 [Example 78, (2R,4R)-1-(3-chloro-2-fluorobenzyl)-4-((5-fluoro-4-methyl-6-((5-methyl-1H-pyrazol-3-yl)amino)pyridin-2-yl)methyl)-2-methylpiperidine-4-carboxylic acid] | 96 | 65 ± 14 |  |
| Cc1cc(Nc2ccc(F)c(C[C@@]3(C(=O)O)CCN(Cc4cccc(Cl)c4F)[C@H](C)C3)n2)n[nH]1 [LY3295668] |  |  | CL ([4]; IV: 3 mg/kg): 1.52 mL/min/kg; Vss ([4]; IV: 3 mg/kg): 0.29 L/kg; AUClast ([4]; PO: 10 mg/kg): 91211 ng·h/mL; Cmax ([4]; PO: 10 mg/kg): 15033 ng/mL; t½ ([4]; PO: 10 mg/kg): 3.37 h; F % ([4]; PO: 10 mg/kg vs IV: 3 mg/kg): 81% |
